The text below walks through data of patent US20230293517A1, “ANTAGONIST COMPOUNDS” (AdoRx Therapeutics Limited, priority 2020, published 2023).

Test [1] concerns the target human Adenosine A2a receptor (Homo sapiens (Human), UniProt P29274). The experiment in a line: Adenosine receptor TR-FRET binding assay (A2a). The following applies: inhibition of binding of 100 nM CA200645, CHO cell membranes. As for the experimental part: (§1) Biological Example 1—Adenosine Receptor Time-Resolved Fluorescence Resonance Energy Transfer (TRFRET) Binding Assay
(§2) All FRET binding experiments were conducted at room temperature in white 384-well plates, in assay binding buffer containing 1×LabMed (Cisbio, France), 100 μg/mL saponin, 1% DMSO and 0.02% pluronic acid. Binding of the fluorescently labelled Adenosine receptor antagonist XAC (CA200645, FRET acceptor) to terbium-labelled A1, A2a, A2b and A3 adenosine receptors (FRET donors) was detected by time-resolved FRET due to the close proximity of the donor and acceptor in a binding event. To investigate the ability of unlabelled test compounds to bind to Adenosine A1, A2a, A2b and A3 receptors, dose response curves were constructed that determined the ability of a range of concentrations to inhibit the binding of 30 nM CA200645 to the A2b receptor and 100 nM CA200645 to the A1, A2a, and A3 receptor.
(§3) Serial dilution (1:3 dilutions) of test compounds in neat DMSO and transfer of a 400 nL sample of test compound into the assay plate was carried out using the Mosquito (TTP Labtech, UK). The compound samples were incubated for 2 hours at room temperature with a fixed concentration of CA200645 defined for each receptor (see above) and CHO cell membranes containing the human Adenosine A1 (0.5 μg/well), A2a (0.3 μg/well), A2b (1 μg/well) or A3 (1 μg/well) receptor in 40 μL of assay buffer. Total and non-specific binding of CA200645 was determined in the absence and presence of 10 μM XAC, respectively. Following 2 hours incubation, the level of CA200645 binding was detected on a Pherastar FSX (BMG Labtech, Germany) using standard TR-FRET settings. The terbium donor was excited with three laser flashes at a wavelength of 337 nm, and donor and acceptor emission was detected at 620 nm and 665 nm wavelengths, respectively. FRET ratios were obtained by multiplying the acceptor/donor ratio value by 10,000. Specific binding was determined by subtracting the non-specific binding FRET ratio from the total binding FRET ratio. Compound IC50 curves were analysed using GraphPad Prism 7.0 (GraphPad, USA) and Ki affinity values were determined from the obtained IC50 values using the method of Cheng and Prusoff.
Background: TR-FRET usually uses a lanthanide donor and a delayed reading to cut background.

For test [2], the target named is human Adenosine A2b receptor (Homo sapiens (Human), UniProt P29275). The experiment in a line: Adenosine receptor TR-FRET binding assay (A2b). As for the experimental part:
as §1, §2, §3

Test [3] concerns the target human Adenosine A1 receptor (Homo sapiens (Human), UniProt P30542). The experiment in a line: Adenosine receptor TR-FRET binding assay (A1). The following applies: inhibition of binding of 100 nM CA200645, CHO cell membranes. As for the experimental part:
as §1, §2, §3

[4] abbreviates: TR-FRET, inhibition of binding of 30 nM CA200645, CHO cell membranes.

Each structure is given as a SMILES string. Values joined by “and” are separate entries in the source; they are usually repeats but may differ in a detail not shown here. Equal entries are not always repeated. Structures can show the parent of a compound that is named as a salt. Where two headings read alike, the source gives them in different places.

Chain of human Adenosine A2a receptor (P29274 whole entry): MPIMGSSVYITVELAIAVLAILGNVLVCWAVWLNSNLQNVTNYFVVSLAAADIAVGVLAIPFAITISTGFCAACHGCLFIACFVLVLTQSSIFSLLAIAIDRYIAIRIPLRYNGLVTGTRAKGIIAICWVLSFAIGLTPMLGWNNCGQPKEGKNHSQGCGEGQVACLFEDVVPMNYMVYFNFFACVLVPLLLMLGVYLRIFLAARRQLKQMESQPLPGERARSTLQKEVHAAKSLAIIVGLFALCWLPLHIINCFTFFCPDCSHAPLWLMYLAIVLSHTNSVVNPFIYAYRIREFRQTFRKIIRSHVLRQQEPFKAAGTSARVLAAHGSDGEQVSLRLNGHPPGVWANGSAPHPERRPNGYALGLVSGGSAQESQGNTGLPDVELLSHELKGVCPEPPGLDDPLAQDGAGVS
Chain of human Adenosine A2b receptor (P29275 whole entry): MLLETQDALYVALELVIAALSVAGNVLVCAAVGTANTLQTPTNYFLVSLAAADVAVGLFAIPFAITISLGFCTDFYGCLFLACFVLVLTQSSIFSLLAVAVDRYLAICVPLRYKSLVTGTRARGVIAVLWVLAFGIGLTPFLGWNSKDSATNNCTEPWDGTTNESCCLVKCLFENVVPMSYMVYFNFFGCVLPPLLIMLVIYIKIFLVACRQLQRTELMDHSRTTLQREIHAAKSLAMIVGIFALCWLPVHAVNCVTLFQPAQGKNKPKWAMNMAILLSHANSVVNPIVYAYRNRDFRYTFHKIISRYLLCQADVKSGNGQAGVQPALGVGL
Chain of human Adenosine A1 receptor (P30542 whole entry): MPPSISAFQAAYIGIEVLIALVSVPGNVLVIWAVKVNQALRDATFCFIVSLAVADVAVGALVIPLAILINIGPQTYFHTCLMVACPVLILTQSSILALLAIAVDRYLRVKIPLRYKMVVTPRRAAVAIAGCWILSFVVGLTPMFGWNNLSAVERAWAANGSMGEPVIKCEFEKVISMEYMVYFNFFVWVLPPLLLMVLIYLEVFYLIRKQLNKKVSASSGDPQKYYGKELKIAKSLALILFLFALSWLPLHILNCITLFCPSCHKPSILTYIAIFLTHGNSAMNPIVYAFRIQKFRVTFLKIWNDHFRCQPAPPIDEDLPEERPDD

For orientation: Ki means the equilibrium dissociation constant of an inhibitor or competing ligand from its target. Consider `Cc1cc(-c2sc(NC(=O)N3CCN(C4CCOCC4)CC3)nc2-c2cccc(C#N)c2)cc(C)n1` [Example 6.113, N-[4-(3-Cyanophenyl)-5-(2,6-dimethyl-4-pyridyl)thiazol-2-yl]-4-tetrahydropyran-4-yl-piperazine-1-carboxamide diformate salt], for which the Ki came out at 10.8 nM in test [1], 8.3 nM in test [2] (setting [4]) and 361 nM in test [3].
As for `Cc1cc(-c2sc(NC(=O)N3C[C@@H]4NCCO[C@H]4C3)nc2-c2cccc(C#N)c2)cc(C)n1` (racemic) [Example 14.3, rac-(4aS,7aS)—N-[4-(3-Cyanophenyl)-5-(2,6-dimethyl-4-pyridyl)thiazol-2-yl]-3,4,4a,5,7,7a-hexahydro-2H-pyrrolo[3,4-b][1,4]oxazine-6-carboxamide 2,2,2-trifluoroacetic acid salt], the Ki stood at 3.49 nM in test [1] and 7.6 nM in test [2].
As to `Cc1cc(-c2sc(NC(=O)N3CC(N(C)C)C3)nc2-c2cccc(C#N)c2)cc(C)n1` [Example 6.115, N-[4-(3-Cyanophenyl)-5-(2,6-dimethyl-4-pyridyl)thiazol-2-yl]-3-(dimethylamino)azetidine-1-carboxamide], the Ki in test [1] was 8 nM; in test [2] (setting [4]), 29 nM; in test [3], 177 nM.
As for `Cc1cc(-c2sc(NC(=O)N3CCN[C@@H](C#N)C3)nc2-c2cccc(C#N)c2)cc(C)n1` [Example 13.15, (3R)-3-Cyano-N-[4-(3-cyanophenyl)-5-(2,6-dimethyl-4-pyridyl)thiazol-2-yl]piperazine-1-carboxamide], the Ki in test [1] worked out at 0.33 nM; in test [2] (setting [4]) it was 5.1 nM; in test [3], 41 nM.
Taken in the same sequence, the figures for `Cc1cc(-c2sc(NC(=O)N3CCNC(C)(C)C3)nc2-c2cccc(C#N)c2)cc(C)n1` [Example 14.6, N-[4-(3-Cyanophenyl)-5-(2,6-dimethyl-4-pyridyl)thiazol-2-yl]-3,3-dimethyl-piperazine-1-carboxamide] were 15.6 nM, 33 nM and 185 nM.
On to `Cc1cc(-c2sc(NC(=O)N3CC4(COC4)C3)nc2-c2cccc(C#N)c2)cc(C)[n+]1[O-]` [Example 17, N-[4-(3-Cyanophenyl)-5-(2,6-dimethyl-1-oxido-pyridin-1-ium-4-yl)thiazol-2-yl]-2-oxa-6-azaspiro[3.3]heptane-6-carboxamide], for which the Ki came to 1.29 nM in test [1], 10 nM in test [2] (setting [4]) and 12 nM in test [3].
For the molecule `Cc1cc(-c2sc(NC(=O)N3CCNC4(CC4)C3)nc2-c2cccc(C#N)c2)cc(C)n1` [Example 13.2, N-[4-(3-Cyanophenyl)-5-(2,6-dimethyl-4-pyridyl)thiazol-2-yl]-4,7-diazaspiro[2.5]octane-7-carboxamide], the figures for the Ki in test [1], in test [2] (setting [4]) and in test [3] were 1.9 nM, 4.4 nM and 27 nM, respectively.
The matching figures for `Cc1cc(-c2sc(NC(=O)N3CCNCC3C3CC3)nc2-c2cccc(C#N)c2)cc(C)n1` (stereo not shown) [Example 14.4, N-[4-(3-Cyanophenyl)-5-(2,6-dimethyl-4-pyridyl)thiazol-2-yl]-2-cyclopropyl-piperazine-1-carboxamide]: 5.79 nM, 37.1 nM and 58 nM.
`Cc1cc(-c2sc(NC(=O)N3CCN(C(C)(C)CO)CC3)nc2-c2cccc(C#N)c2)cc(C)n1` [Example 4.37, N-[4-(3-Cyanophenyl)-5-(2,6-dimethyl-4-pyridyl)thiazol-2-yl]-4-(2-hydroxy-1,1-dimethyl-ethyl)piperazine-1-carboxamide]: the Ki in test [1] was found to be 4.29 nM; in test [2] (setting [4]), 27.1 nM; in test [3], 545 nM.
The matching figures for `Cc1cc(-c2sc(NC(=O)N3CCCC3CC(C)(C)O)nc2-c2cccc(C#N)c2)cc(Cl)n1` (stereo not shown) [Example 3.3]: 2.15 nM, 3.9 nM and 136 nM.
As to `Cc1cc(-c2sc(NC(=O)N3CC(N4CCOCC4)C3)nc2-c2cccc(C#N)c2)cc(C)n1` [Example 6.112, N-[4-(3-Cyanophenyl)-5-(2,6-dimethyl-4-pyridyl)thiazol-2-yl]-3-morpholino-azetidine-1-carboxamide], the Ki is 4.3 nM in test [1], 23.6 nM in test [2] (setting [4]) and 339 nM in test [3].
As to `Cc1cc(-c2sc(NC(=O)N3C[C@H]4CC[C@@H](C3)N(C)C4)nc2-c2cccc(C#N)c2)cc(C)n1` [Example 6.5, (1S,5S)-N-[4-(3-Cyanophenyl)-5-(2,6-dimethyl-4-pyridyl)thiazol-2-yl]-6-methyl-3,6-diazabicyclo[3.2.2]nonane-3-carboxamide], the Ki in test [1] came out at 4.63 nM; in test [2] (setting [4]), 23.1 nM; in test [3], 93 nM.
On to `Cc1cc(-c2sc(NC(=O)N3C[C@@H](C)N[C@@H](C)C3)nc2-c2cccc(C#N)c2)cc(C)n1` [Example 13, (3S,5R)—N-[4-(3-Cyanophenyl)-5-(2,6-dimethyl-4-pyridyl)thiazol-2-yl]-3,5-dimethyl-piperazine-1-carboxamide], for which the results for the Ki in test [1], in test [2] (setting [4]) and in test [3] were 24.3 nM, 196 nM and 373 nM, respectively.
Taken in the same sequence, the figures for `Cc1cc(-c2sc(NC(=O)N3CCC(C)(C#N)CC3)nc2-c2cccc(C#N)c2)cc(C2COC2)n1` [Example 6.111, 4-Cyano-N-[4-(3-cyanophenyl)-5-[2-methyl-6-(oxetan-3-yl)-4-pyridyl]thiazol-2-yl]-4-methyl-piperidine-1-carboxamide] were 0.2 nM, 6.4 nM and 18 nM.
In the case of `Cc1cc(-c2sc(NC(=O)N3CCC(CN4CCOCC4)CC3)nc2-c2cccc(C#N)c2)cc(C)n1` [Example 6.116, N-[4-(3-Cyanophenyl)-5-(2,6-dimethyl-4-pyridyl)thiazol-2-yl]-4-(morpholinomethyl)piperidine-1-carboxamide formate salt], the Ki in test [1] came to 7.39 nM; in test [2] (setting [4]) it was 10 nM; in test [3], 281 nM.
The matching figures for `Cc1cc(-c2sc(NC(=O)N3CC4CN(C)CC43)nc2-c2cccc(C#N)c2)cc(C)n1` (stereo not shown) [Example 6.120, N-[4-(3-Cyanophenyl)-5-(2,6-dimethyl-4-pyridyl)thiazol-2-yl]-3-methyl-3,6-diazabicyclo[3.2.0]heptane-6-carboxamide]: 11.1 nM, 63.9 nM and 123 nM.
For `Cc1cc(-c2sc(NC(=O)N3CCN4CCC3C4)nc2-c2cccc(C#N)c2)cc(C)n1` (stereo not shown) [Example 6.121, N-[4-(3-Cyanophenyl)-5-(2,6-dimethyl-4-pyridyl)thiazol-2-yl]-1,4-diazabicyclo[3.2.1]octane-4-carboxamide], the Ki in test [1] stood at 1.94 nM; in test [2] (setting [4]) it was 6.8 nM; in test [3] it was 123 nM.
Regarding `Cc1cc(-c2sc(NC(=O)N3CCNCC34CCC4)nc2-c2cccc(C#N)c2)cc(C)n1` [Example 7.10, N-[4-(3-Cyanophenyl)-5-(2,6-dimethyl-4-pyridyl)thiazol-2-yl]-5,8-diazaspiro[3.5]nonane-5-carboxamide], the Ki in test [1] came out at 29.4 nM; in test [2] (setting [4]), 90 nM; in test [3], 122 nM.
Take `Cc1cc(-c2sc(NC(=O)N3CCN[C@H](C#N)C3)nc2-c2cccc(C#N)c2)cc(C)n1` [Example 13.14, (3S)-3-Cyano-N-[4-(3-cyanophenyl)-5-(2,6-dimethyl-4-pyridyl)thiazol-2-yl]piperazine-1-carboxamide]: the Ki was found to be 0.18 nM in test [1], 4.2 nM in test [2] (setting [4]) and 13 nM in test [3].
As to `Cc1cc(-c2sc(NC(=O)N3CC4(CNCCO4)C3)nc2-c2cccc(C#N)c2)cc(C)n1` [Example 13.1, N-[4-(3-Cyanophenyl)-5-(2,6-dimethyl-4-pyridyl)thiazol-2-yl]-5-oxa-2,8-diazaspiro[3.5]nonane-2-carboxamide], the Ki in test [1] was 0.64 nM; in test [2] (setting [4]) it was 1.9 nM; in test [3], 164 nM.
On to `Cc1cc(-c2sc(NC(=O)N3CCN4CCC[C@H]4C3)nc2-c2cccc(C#N)c2)cc(C)n1` [Example 4.38, (8aS)-N-[4-(3-Cyanophenyl)-5-(2,6-dimethyl-4-pyridyl)thiazol-2-yl]-3,4,6,7,8,8a-hexahydro-1H-pyrrolo[1,2-a]pyrazine-2-carboxamide formate salt], for which the Ki in test [2] (TR-FRET, inhibition of binding of 30 nM CA200645, CHO cell membranes, formate salt) was 8.1 nM and 3.5 nM; in test [3] (formate salt), 180 nM and 75 nM.
